From US8697692B2, “Pyrrolo [3,2-c] pyridine-4-one 2-indolinone protein kinase inhibitors” (Shanghai Hengrui Pharmaceutical Co., Ltd., priority 2006, dated 2014) come the findings set out here.

One assay concerns the target T1, HER-2/ErbB2 kinase (Homo sapiens, UniProt P04626).
T1 construct: purchased Invitrogen corporation #PV3366
In words: HER-2 Kinase Assay (ELISA). The assay is classed as biochemical. As to conditions: 20 μM ATP, 25° C. 60 minutes. As for the experimental part: An enzyme linked immunosorbent assays (ELISA) was conducted to measure the kinase activity of HER-2 in vitro.
a. Wash Buffer (PBS-T Buffer): 1×PBS (137 mM NaCl; 2.7 mM KCl, 4.3 mM Na2HPO4, 1.4 mM KH2PO4, adjust the pH to 7.2) and 0.05% Tween-20.
b. 1% Bovine Serum Albumin (BSA, Calbiochem #136593) in PBS-T.
c. Stop Buffer: 50 mM EDTA, pH 8.0.
d. DELFIA® Europium-labeled Anti-mouse IgG (PerkinElmer Life Sciences #AD0124).
e. DELFIA® Enhancement Solution (PerkinElmer Life Sciences #1244-105).
f. DELFIA® Streptavidin coated, 96-well, yellow plate (PerkinElmer Life Sciences #AAAND-0005).
g. HER-2/ErbB2 kinase (Invitrogen corporation #PV3366).
h. 10 mM ATP solution (Cell signaling technology #9804).
i. FLT3 (Tyr589) Biotinylated Peptide (Cell signaling technology #1305).
j. Phospho-Tyrosine Mouse mAb (P-Tyr-100) (Cell signaling technology #9411).
k. HTScan™ Tyrosine Kinase Buffer (4×)
(Cell signaling technology #9805).
l. 1.25 M DTT (1000×) (Cell signaling technology).
The following protocol was used:
1. Dilute test compound with DMSO to the desired final assay concentration. Add 1 μl test compound for every assay, to the negative control.
2. Dilute 6 μM substrate peptide (Tyr589) 1:1 with dH2O, add 15 μl to every assay.
3. Immediately transfer HER-2 enzyme from −80° C. to ice. Allow enzyme to thaw on ice.
4. Take 4.5 μg HER-2 enzyme to the enzyme tube.
5. Add 10 μl of DTT (1.25 M) to 2.5 ml of 4×HTScan™ Tyrosine Kinase Buffer (240 mM HEPES pH 7.5, 20 mM MgCl2, 20 mM MnCl2, 12 μM Na3VO4) to make DTT/Kinase buffer.
6. Transfer 0.75 ml of DTT/Kinase buffer to each enzyme tube to make 4× reaction cocktail. Add 7.5 μl 4× reaction cocktail to every assay.
7. Add 4 μl ATP (10 mM) to 496 μl dH2O, take 7.5 μl for every assay. Final Assay Conditions for a 30 μl Reaction
Incubate reaction tube at 25° C. for 60 minutes. 9. Add 30 μl/assay stop buffer (50 mM EDTA, pH 8.0) to stop the reaction. 10. Transfer 25 μl of each reaction and 75 μl dH2O/well to a 96-well streptavidin coated plate and incubate, with shaking at room temperature for 60 minutes. 11. Wash three times with 200 μl/well PBS-T buffer. Pat plate on paper towel to remove excess liquid. 12. Dilute primary antibody, Phospho-Tyrosine mAb (P-Tyr-100), 1:1000 in PBS-T buffer with 1% BSA. Add 100 μl diluted primary antibody to each well. 13. Incubate, with shaking at room temperature for 60 minutes. 14. Wash as described above in step 11. 15. Dilute Europium labeled anti-mouse IgG 1:500 in PBS-T buffer with 1% BSA. Add 100 μl diluted antibody to each well. 16. Incubate, with shaking at room temperature for 30 minutes. 17. Wash five times with 200 μl/well PBS-T buffer. Pat plate on paper towel to remove excess liquid. 18. Add 100 μl/well DELFIA® Enhancement Solution. 19. Incubate, with shaking at room temperature for 5 minutes. 20. Detect 615 nm fluorescence emission with appropriate Time-Resolved Plate Reader.
Calculate the inhibition rate: IR (%)=100−100*(X−B)/(N−B)
X=the fluorescence value of the well contained test compound
The IC50 value can be derived from the IRs of compounds at different concentration gradients.
In general terms: ELISA stands for enzyme-linked immunosorbent assay.

The test system of a further assay is A431 cell. In words: Cell Proliferation Inhibition EGFR Assay (SRB method). The class given is cell-based, homo sapient. The settings on record: Homo sapiens, A-431; A431 cells, 72 hours exposure, Sulforhodamine B; read-out: IC50 (A431). The method in brief: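 A431 cells grown to ~85% confluence, then exposed 72 hours at 37° C to 6 to 7 serial concentrations of compound in DMEM/F12 + 10% FBS, final DMSO ≤0.5%. Growth measured by TCA fixation and sulforhodamine B staining; IC50 calculated from inhibition rates.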
Background: In SRB staining, fixed cells bind dye roughly in proportion to their protein.

T1 sequence (P04626 23-1255): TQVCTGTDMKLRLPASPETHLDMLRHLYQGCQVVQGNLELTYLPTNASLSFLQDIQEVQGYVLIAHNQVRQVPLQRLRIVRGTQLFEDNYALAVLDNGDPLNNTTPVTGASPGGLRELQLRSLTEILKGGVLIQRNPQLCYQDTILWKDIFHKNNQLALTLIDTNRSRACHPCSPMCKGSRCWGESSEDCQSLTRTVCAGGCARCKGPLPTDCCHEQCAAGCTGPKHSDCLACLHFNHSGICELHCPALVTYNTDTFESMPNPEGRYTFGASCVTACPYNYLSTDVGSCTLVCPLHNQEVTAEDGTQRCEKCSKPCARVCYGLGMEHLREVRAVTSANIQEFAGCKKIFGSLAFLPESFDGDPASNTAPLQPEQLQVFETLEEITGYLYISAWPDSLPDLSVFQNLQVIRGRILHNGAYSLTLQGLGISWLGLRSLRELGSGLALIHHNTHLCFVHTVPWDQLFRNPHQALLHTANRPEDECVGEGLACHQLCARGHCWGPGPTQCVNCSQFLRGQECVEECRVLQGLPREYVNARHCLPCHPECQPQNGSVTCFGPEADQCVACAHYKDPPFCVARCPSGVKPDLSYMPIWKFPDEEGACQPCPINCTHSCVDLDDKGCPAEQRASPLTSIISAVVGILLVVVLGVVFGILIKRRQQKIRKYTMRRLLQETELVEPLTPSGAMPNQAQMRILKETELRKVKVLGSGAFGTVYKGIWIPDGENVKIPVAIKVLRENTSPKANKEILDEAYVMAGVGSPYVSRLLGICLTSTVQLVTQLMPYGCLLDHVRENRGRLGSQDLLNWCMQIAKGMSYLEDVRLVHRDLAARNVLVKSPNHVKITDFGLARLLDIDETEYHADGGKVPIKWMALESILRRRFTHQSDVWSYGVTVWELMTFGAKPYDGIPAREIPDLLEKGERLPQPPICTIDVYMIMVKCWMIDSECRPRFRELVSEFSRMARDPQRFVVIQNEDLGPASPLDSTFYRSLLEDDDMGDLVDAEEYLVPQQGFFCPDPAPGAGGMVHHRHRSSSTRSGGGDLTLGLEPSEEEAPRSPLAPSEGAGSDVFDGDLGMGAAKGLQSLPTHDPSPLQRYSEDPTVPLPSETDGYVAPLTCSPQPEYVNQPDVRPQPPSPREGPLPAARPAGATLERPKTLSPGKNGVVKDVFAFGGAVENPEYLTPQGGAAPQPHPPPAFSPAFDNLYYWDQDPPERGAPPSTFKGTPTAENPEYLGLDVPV

As for `Cc1c(/C=C2\C(=O)Nc3cccc(Br)c32)[nH]c2c1C(=O)N(CCN1CCCC1)CC2` [Example 69, 2-(4-Bromo-2-oxo-1,2-dihydro-indol-3-ylidenemethyl)-3-methyl-5-(2-pyrrolidin-1-yl-ethyl)-1,5,6,7-tetrahydro-pyrrolo[3,2-c]pyridin-4-one], the values for the IC50 at HER-2/ErbB2 kinase and in the assay with A431 cell were 910 nM and 200 nM, respectively.
`Cc1c(/C=C2\C(=O)Nc3cccc(C4CCNCC4)c32)[nH]c2c1C(=O)N(CCN1CCCC1)CC2` [Example 71, 3-Methyl-2-(2-oxo-4-piperidin-4-yl-1,2-dihydro-indol-3-ylidenemethyl)-5-(2-pyrrolidin-1-yl-ethyl)-1,5,6,7-tetrahydro-pyrrolo[3,2-c]pyridin-4-one]: the results for the IC50 against HER-2/ErbB2 kinase and in the assay with A431 cell were 1090 nM and 590 nM, respectively.
For `Cc1c(/C=C2\C(=O)Nc3cccc(-c4cccc(Cl)c4F)c32)[nH]c2c1C(=O)N(CCN1CCCC1)CC2` [Example 68, 2-[4-(3-Chloro-2-fluoro-phenyl)-2-oxo-1,2-dihydro-indol-3-ylidenemethyl]-3-methyl-5-(2-pyrrolidin-1-yl-ethyl)-1,5,6,7-tetrahydro-pyrrolo[3,2-e]pyridin-4-one], in that order: 530 nM and 13800 nM.

Usually IC50 stands for the midpoint of a concentration-inhibition curve.
